Reference: ChEMBL document CHEMBL1145234, “A new synthetic analogue of thymidine, 7-(3-bromo-phenoxy)-thymidine, inhibits the proliferation of tumor cells” (Bioorg Med Chem Lett, 2005)

Each compound was assayed on HeLa (assay: Inhibitory concentration against HeLa cell proliferation after 72 hours of incubation; NA means not active). Settings: not given; call rule not given here.
Format: functional, cell-based, Homo sapiens

Row | Compound | IC50
1 | O=c1ccn([C@H]2C[C@H](O)[C@@H](CO)O2)c(=O)[nH]1 [DEOXYURIDINE] | Not Active

What follows are compounds tested on HeLa (assay: Inhibitory concentration against HeLa cell proliferation after 72 hours of incubation). Settings: Homo sapiens.
Format: functional, cell-based

Row | IC50 [µM] | Compound
2 | 50 | O=c1[nH]c(=O)n([C@H]2C[C@H](O)[C@@H](CO)O2)cc1COc1ccc2ccccc2c1
3 | 250 | O=c1[nH]c(=O)n([C@H]2C[C@H](O)[C@@H](CO)O2)cc1COc1ccc([N+](=O)[O-])cc1
4 | 200 | COc1ccc(OCc2cn([C@H]3C[C@H](O)[C@@H](CO)O3)c(=O)[nH]c2=O)cc1
5 | 50 | O=c1[nH]c(=O)n([C@H]2C[C@H](O)[C@@H](CO)O2)cc1COc1cccc2ccccc12
6 | 25 | O=c1[nH]c(=O)n([C@H]2C[C@H](O)[C@@H](CO)O2)cc1COc1ccc(Br)cc1

Further lines, the compound ahead of its results:

Row | Compound | IC50 [µM]
7 | Cc1ccc(OCc2cn([C@H]3C[C@H](O)[C@@H](CO)O3)c(=O)[nH]c2=O)cc1 | 250
8 | O=c1[nH]c(=O)n([C@H]2C[C@H](O)[C@@H](CO)O2)cc1COc1ccccc1 | 200
9 | CCOc1ccc(OCc2cn([C@H]3C[C@H](O)[C@@H](CO)O3)c(=O)[nH]c2=O)cc1 | 250
10 | O=c1[nH]c(=O)n([C@H]2C[C@H](O)[C@@H](CO)O2)cc1CSc1cccc2ccccc12 | 500
11 | Cc1cn([C@H]2C[C@H](O)[C@@H](CO)O2)c(=O)[nH]c1=O [DOXRIBTIMINE] | 4000
12 | O=c1[nH]c(=O)n([C@H]2C[C@H](O)[C@@H](CO)O2)cc1COc1cccc(Br)c1 | 15
